From patent publication US8163909B2, “Substituted hydroxyethyl amine compounds as beta-secretase modulators and methods of use” (Amgen Inc., priority 2007, dated 2012)
Where two headings read alike, the source gives them in different places.

Assays:
[1] = molecular target: Beta Secretase enzyme (BACE) (Homo sapiens, UniProt P56817); experiment: In vitro enzymatic BACE FRET (fluorescence resonance energy transfer) assay; format: biochemical;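 note: fluorescence read after 1 h with 50 nM quenched peptide substrate spanning the BACE cleavage site, in pH 4.2 acetate buffer containing 10% DMSO and nonionic detergent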
Beta Secretase enzyme (BACE), sequence (P56817 46-501): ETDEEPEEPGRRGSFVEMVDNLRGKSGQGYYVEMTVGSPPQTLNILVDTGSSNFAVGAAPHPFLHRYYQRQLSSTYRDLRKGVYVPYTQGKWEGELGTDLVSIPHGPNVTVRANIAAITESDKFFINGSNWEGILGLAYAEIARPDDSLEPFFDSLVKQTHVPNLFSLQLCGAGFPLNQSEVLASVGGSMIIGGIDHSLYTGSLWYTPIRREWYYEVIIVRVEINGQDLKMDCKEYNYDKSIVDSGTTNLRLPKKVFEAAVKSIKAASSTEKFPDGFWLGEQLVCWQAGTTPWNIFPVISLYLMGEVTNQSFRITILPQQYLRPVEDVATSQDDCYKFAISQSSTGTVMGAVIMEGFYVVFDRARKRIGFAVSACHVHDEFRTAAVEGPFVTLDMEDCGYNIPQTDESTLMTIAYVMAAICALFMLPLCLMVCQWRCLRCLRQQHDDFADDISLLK

[2] = test system: Aβ40 in conditioned medium of cells stably expressing Amyloid Precursor Protein (APP); experiment: In vitro BACE cell-based assay (Aβ40 in conditioned medium, sandwich ELISA);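 note: compounds added as a dilution series, secreted peptide quantified by europium time-resolved fluorescence readout, potency fitted from percent of control versus compound concentration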
[3] = BACE enzyme assay, read-out: BACE1 FRET assay (IC50)
[4] = Homo sapiens, HEK293, HEK cells, cell-based assay, read-out: HEK cell assay (IC50)
[5] = BACE enzyme FRET assay, read-out: BACE1 FRET assay (IC50)
[6] = BACE enzyme assay, IC50's in uM, read-out: BACE1 FRET assay
[7] = Homo sapiens, HEK293, cell-based assay, HEK cells, IC50's in uM, read-out: HEK cell assay
[8] = HEK cells, cell-based assay, read-out: HEK cell assay (IC50)
[9] = Table 1, read-out: BACE1 FRET assay
[10] = Homo sapiens, HEK293, Table 1, HEK cells, read-out: HEK cell assay

IC50 [1, 3] [µM]	IC50 [2, 4] [µM]	IC50 [1, 5] [µM]	Compound	other results
	0.327	0.151	COCC(=O)N[C@@H](Cc1ccc2c(c1)OCO2)[C@H](O)CN[C@H]1CC2(CCC2)Oc2ncc(CC3(C(F)(F)F)CC3)cc21 [compound 313]	
	0.0229	0.0229	CC(=O)N[C@@H](Cc1ccc2c(c1)OCCO2)[C@H](O)CN[C@H]1CC2(CCC2)Oc2ncc(CC(C)(C)C)cc21 [compound 205]	
	0.0298	0.00969	CC(=O)N[C@@H](Cc1ccnc(OCC(F)F)c1)[C@H](O)CN[C@H]1CC2(CCC2)Oc2c(F)cc(CC(C)(C)C)cc21 [compound 223]	
	0.388	9.6	CC(=O)N[C@@H](Cc1ccc2c(c1)OCO2)[C@H](O)CN[C@H]1CC2(CCC2)Oc2cnc(C(F)(F)F)cc21 [compound 265]	
	0.0444	0.0137	COCC(=O)N[C@@H](Cc1cccc(F)c1)[C@H](O)CN[C@H]1CC2(CCC2)Oc2c(F)cc(CC(C)(C)C)cc21 [compound 221]	
		0.271	COC(=O)C1CC2(C1)CC(NCC(O)C(Cc1ccc(F)cc1)NC(C)=O)c1cc(CC(C)(C)C)cnc1O2 [compound 257, methyl (1s,3R,4′S)-4′-(((2R,3S)-3-(acetylamino)-4-(4-fluorophenyl)-2-hydroxybutyl)amino)-6′-(2,2-dimethylpropyl)-3′,4′-dihydrospiro[cyclobutane-1,2′-pyrano[2,3-b]pyridine]-3-carboxylate]	IC50 [2, 8]: 0.372 µM
	0.0768	0.0201	CC(=O)N[C@@H](Cc1cccc(F)c1)[C@H](O)CN[C@H]1CC2(CCC2)Oc2ccc(CC(C)(C)F)cc21 [compound 201, N-((1S,2R)-3-(((4S)-6-(2-fluoro-2-methylpropyl)-3,4-dihydrospiro[chromene-2,1′-cyclobutan]-4-yl)amino)-1-((3-fluorophenyl)methyl)-2-hydroxypropyl)acetamide]	
	0.0336	0.00628	COC(C)C(=O)NC(Cc1ccc2c(c1)OCO2)C(O)CNC1CC2(CC(F)C2)Oc2ncc(CC(C)(C)C)cc21 [compound 241, (2R)—N-((1S,2R)-1-(1,3-benzodioxol-5-ylmethyl)-3-(((1s,3S,4′S)-6′-(2,2-dimethylpropyl)-3-fluoro-3′,4′-dihydrospiro[cyclobutane-1,2′-pyrano[2,3-b]pyridin]-4′-yl)amino)-2-hydroxypropyl)-2-(methyloxy)propanamide]	
	0.196	0.0775	COC(=O)N[C@@H](Cc1ccc2c(c1)OCO2)[C@H](O)CN[C@H]1CC2(CCC2)Oc2ncc(CC(C)(C)C)cc21 [compound 289]	
	0.0168	0.00613	COCC(=O)N[C@@H](Cc1ccc2c(c1)OCO2)[C@H](O)CN[C@H]1CC2(CCC2)Oc2ncc(CC(C)(C)C)cc21 [compound 282]	
	0.0116	0.00405	CC(=O)N[C@@H](Cc1cccc(F)c1)[C@H](O)CN[C@H]1CC2(CCC2)Oc2c(F)cc(CC(C)(C)C)cc21 [compound 220]	
	0.0147	0.0151	CC(=O)N[C@@H](Cc1ccccc1)[C@H](O)CN[C@H]1CC2(CCC2)Oc2ncc(CC(C)(F)F)cc21 [compound 272]	

More lines, now with the values behind:

Compound	IC50 [1, 3] [µM]	IC50 [2, 4] [µM]	IC50 [1, 5] [µM]	other results
COCC(=O)N[C@@H](Cc1ccc(F)cc1)[C@H](O)CN[C@H]1CC2(CCC2)Oc2ncc([C@H](F)C(C)(C)C)cc21 [compound 179]	0.00549	0.0186		
COCC(=O)N[C@@H](Cc1ccnc(OCC(F)(F)F)c1)[C@H](O)CN[C@H]1CC2(CCC2)Oc2ncc(CC(C)(C)C)cc21 [compound 166]	0.0108	0.00985		
CC(C)(C)Cc1cnc2c(c1)[C@@H](NC[C@@H](O)[C@H](Cc1cc(F)cc(F)c1)NC(=O)C(C)(Cl)Cl)CC1(CCC1)O2 [compound 97]	0.0138	0.385		
CO[C@@H](C(=O)N[C@@H](Cc1ccc(F)cc1)[C@H](O)CN[C@H]1CC2(CCC2)Oc2ncc(CC(C)(C)C)cc21)C(F)(F)F [compound 63]	0.258	0.128		
CC(=O)N[C@@H](Cc1ccc(F)cc1)[C@H](O)CN[C@H]1CC2(CCC2)Oc2ncc(NC(=O)C(C)(C)C)cc21 [compound 84]	4.87	> 10		
CO[C@H](C)C(=O)N[C@@H](Cc1ccc2c(c1)OCO2)[C@H](O)CN[C@H]1CC2(CCC2)Oc2c1cc(CC(C)(C)C)nc2N(C)C [compound 135]	0.0647	0.175		
CC(C)C(=O)N[C@@H](Cc1ccc2c(c1)OCO2)[C@H](O)CN[C@H]1CC2(CCC2)Oc2ncc(CC(C)(C)C)cc21 [compound 881]				IC50 [1, 6]: 0.144 µM; IC50 [2, 7]: 0.813 µM
C=CC[C@H](NC(=O)COC)[C@H](O)CN[C@H]1CC2(CCC2)Oc2cnc(CC(C)(C)C)cc21 [compound 120]	0.745	0.343		
CC(=O)N[C@@H](Cc1ccc(F)cc1)[C@H](O)CN[C@H]1C[C@]2(CC[C@@H]2O)Oc2ncc(CC(C)(C)C)cc21 [compound 117]	0.00785	0.0336		
CC(=O)N[C@@H](Cc1cc(F)cc(F)c1)[C@H](O)CN[C@H]1CC2(CCCC2)C(=O)c2ccc(CC(C)(C)C)cc21 [compound 90]	0.0103	0.0747		
CC(=O)N[C@@H](Cc1ccc(F)cc1)[C@H](O)CN[C@@H]1C[C@]2(CC[C@H]2O)Oc2ncc(CC(C)(C)C)cc21 [compound 115]	6.88	5.5		
CC(=O)N[C@@H](Cc1ccc2c(c1)OCO2)[C@H](O)CN[C@H]1CC2(CCC2)Oc2c(F)cc(CC(C)(C)C)cc21 [compound 170]	0.0125	0.0535		
CC(C)(C)Cc1cnc2c(c1)[C@@H](NC[C@@H](O)[C@H](Cc1cccc(F)c1)NC(=O)C(F)(F)Cl)CC1(CCC1)O2 [compound 108]	0.00506	0.0906		
CC#Cc1cccc(C[C@H](NC(=O)[C@@H](C)OC)[C@H](O)CN[C@H]2CC3(CCC3)Oc3ncc(CC(C)(C)C)cc32)c1 [compound 895]				IC50 [1, 6]: 0.016 µM; IC50 [2, 7]: 0.017 µM
C[C@H](F)C(=O)N[C@@H](Cc1ccc2c(c1)OCO2)[C@H](O)CN[C@H]1CC2(CCC2)Oc2ncc(CC(C)(C)C)cc21 [Example 483]				IC50 ([1]; Table 2, read-out: BACE1 FRET assay): 0.018 µM; IC50 ([2]; Homo sapiens, HEK293, Table 2, HEK cells, read-out: HEK cell assay): 0.049 µM
CC(C)(C)Cc1cnc2c(c1)[C@@H](NC[C@@H](O)[C@H](Cc1ccc3c(c1)OCO3)NC(=O)C(Cl)Cl)CC1(CCC1)O2 [compound 100]	0.0127			IC50 [2, 8]: 0.0714 µM
CO[C@H](C(=O)N[C@@H](Cc1ccc(F)cc1)[C@H](O)CN[C@H]1CC2(CCC2)Oc2ncc(CC(C)(C)C)cc21)C(F)(F)F [compound 64]	0.617	0.0797		
COCC(=O)N[C@@H](Cc1ccc2c(c1)OCO2)[C@H](O)CN[C@H]1CC2(CCC2)Oc2ncc(C[C@@H](C)C(F)(F)F)cc21 [compound 341]				IC50 [1, 9]: 0.0595 µM; IC50 [2, 10]: 0.138 µM
CNc1nc(CC(C)(C)C)cc2c1OC1(CCC1)C[C@@H]2NC[C@@H](O)[C@H](Cc1ccc2c(c1)OCO2)NC(=O)[C@@H](C)OC [compound 136]	0.0411	0.0163		
CO[C@@H](C)C(=O)N[C@@H](Cc1ccc(F)cc1)[C@H](O)CN[C@H]1CC2(CCC2)Oc2c(F)cc(CC(C)(C)C#N)cc21 [compound 173]	0.0364	0.0546		
CO[C@H](C)C(=O)N[C@@H](Cc1ccc(F)cc1)[C@H](O)CN[C@H]1CC2(CCC2)Oc2c1cc(CC(C)(C)C)nc2NCC(F)(F)F [compound 141, (2R)-N-((1S,2R)-3-(((4′S)-6′-(2,2-dimethylpropyl)-8′-((2,2,2-trifluoroethyl)amino)-3′,4′-dihydrospiro[cyclobutane-1,2′-pyrano[2,3-c]pyridin]-4′-yl)amino)-1-((4-fluorophenyl)methyl)-2-hydroxypropyl)-2-(methyloxy)propanamide]	0.319	2.84		
COCC(=O)N[C@@H](Cc1ccc2c(c1)OCO2)[C@H](O)CN[C@H]1CC2(CCC2)Oc2nc(F)c(CC(C)C)cc21 [compound 337]				IC50 [1, 9]: 0.12 µM; IC50 [2, 10]: 0.531 µM
CO[C@H](C)C(=O)N[C@@H](Cc1ccc(F)cc1)[C@H](O)CN[C@H]1CC2(CCC2)Oc2ncc([C@H](F)C(C)(C)C)cc21 [compound 186]		0.0265	0.00776	
COCC(=O)N[C@@H](Cc1cc(F)cc(-c2nccn2C)c1)[C@H](O)CN[C@H]1CC2(CCC2)Oc2ncc(CC(C)(C)C)cc21 [compound 740, N-((1S,2R)-3-(((4′S)-6′-(2,2-dimethylpropyl)-3′,4′-dihydrospiro[cyclobutane-1,2′-pyrano[2,3-b]pyridin]-4′-yl)amino)-1-(3-fluoro-5-(1-methyl-1H-imidazol-2-yl)benzyl)-2-hydroxypropyl)-2-methoxyacetamide]				IC50 ([1]; BACE enzyme assay IC50, read-out: BACE1 FRET assay): 0.051 µM; IC50 ([2]; Homo sapiens, HEK293, HEK cell-based assay IC50, read-out: HEK cell assay): 0.006 µM
COCC(=O)N[C@@H](Cc1ccc(F)cc1)[C@H](O)CN[C@H]1CC2(CCC2)Oc2c(F)cc(CC(C)(C)C#N)cc21 [compound 172]	0.0186	0.0433		
COC(C)C(=O)NC(Cc1ccc2c(c1)OCO2)C(O)CNC1CC2(CC(C)C2)Oc2ncc(CC(C)C)cc21 [compound 134, (2R)—N-((1S,2R)-1-(1,3-benzodioxol-5-ylmethyl)-2-hydroxy-3-(((1s,3R,4′S)-3-methyl-6′-(2-methylpropyl)-3′,4′-dihydrospiro[cyclobutane-1,2′-pyrano[2,3-b]pyridin]-4′-yl)amino)propyl)-2-(methyloxy)propanamide]	0.0272	0.192		
CO[C@H](C)C(=O)N[C@@H](Cc1cccc(C#N)c1)[C@H](O)CN[C@H]1CC2(CCC2)Oc2ncc(CC(F)(F)F)cc21 [compound 345]				IC50 [1, 9]: 0.0266 µM; IC50 [2, 10]: 0.0609 µM
COc1cc(C[C@H](NC(=O)C(F)(F)F)[C@H](O)CN[C@H]2CC3(CCC3)Oc3ncc(CC(C)(C)C)cc32)ccc1F [compound 80]	0.0123	0.125		
